Laboratory results from publication PMC12721288, “Functional expression and properties of the tick α6 homomeric nicotinic acetylcholine receptor in Xenopus laevis oocytes” (Current Research in Parasitology & Vector-borne Diseases, 2025).
Read-outs that look alike come from different tables or passages of the source.

What was measured:
Format in all cases: cell-based, Ixodes ricinus
[1] = tested on: T1, Iricα6 homomeric nicotinic acetylcholine receptor; experiment: two-electrode voltage clamp in Xenopus oocytes, agonist dose-response
T1 construct: Iricα6 homomeric receptor expressed in Xenopus laevis oocytes (co-injected with C. elegans RIC-3)

[2] = tested on: T1, Iricα6 homomeric nicotinic acetylcholine receptor; experiment: two-electrode voltage clamp in Xenopus oocytes, inhibition of ACh-evoked currents
[3] = tested on: T1, Iricα6 homomeric nicotinic acetylcholine receptor; experiment: two-electrode voltage clamp in Xenopus oocytes, agonist-like dose-response

CC(=O)OCC[N+](C)(C)C [ACh, acetylcholine]
EC50 [1]: 27700 ± 2440 nM

CCN1C[C@]2(COC(=O)c3ccccc3N3C(=O)C[C@H](C)C3=O)CC[C@H](OC)[C@@]34[C@@H]5C[C@H]6[C@H](OC)[C@@H]5[C@](O)(C[C@@H]6OC)[C@@](O)([C@@H](OC)[C@H]23)[C@@H]14 [MLA, methyllicaconitine]
IC50 ([2]; read-out: IC50): 8.56 nM

CO[C@H]1CC=C2CCN3CCC4=C(CC(=O)OC4)[C@]23C1 [DHβE, dihydro-β-erythroidine]
IC50 [2]: 1.35 nM

CNC1(C)C2CCC(C2)C1(C)C (stereo not shown) [MECA, mecamylamine]
EC50 [3]: 12.6 nM
